Entries after “also recorded” stand apart in the source; their conditions may differ. Read-outs that look alike come from different tables or passages of the source.
Experiments:
[1] = BBB-PAMPA (parallel artificial membrane permeability assay); settings: PAMPA, 4 hour, 10 µM
Text: (§1) Next, we checked the basic in vitro ADME test including pharmacokinetics, plasma protein binding, CYP (Cytochrome P450) inhibition, metabolic stability and blood–brain barrier (BBB) permeability. […] We also plan to test safety panel assay in the future to obtain safety data for the drug.
Fig. S8. […]

SOD1^G93A−Tg mice = test: Efficacy of feeding combined with i.p. injection in SOD1G93A-Tg ALS mice; format: in vivo, mouse; settings: daily feeding from 7 weeks plus i.p. twice weekly from 11 weeks; vehicle about 80%
Method: Age-matched WT mice were tested as positive control. […] Mouse movement was recorded.
Meier survival curve of SOD1G93A-Tg ALS mouse model.
Lifespan of PRG-A-01 data was collected from
SOD1G93A-Tg ALS mouse model.

CYP 2C9 = CYP 2C9 (Homo sapiens, UniProt P11712)
Sequence of CYP 2C9 (P11712 whole entry): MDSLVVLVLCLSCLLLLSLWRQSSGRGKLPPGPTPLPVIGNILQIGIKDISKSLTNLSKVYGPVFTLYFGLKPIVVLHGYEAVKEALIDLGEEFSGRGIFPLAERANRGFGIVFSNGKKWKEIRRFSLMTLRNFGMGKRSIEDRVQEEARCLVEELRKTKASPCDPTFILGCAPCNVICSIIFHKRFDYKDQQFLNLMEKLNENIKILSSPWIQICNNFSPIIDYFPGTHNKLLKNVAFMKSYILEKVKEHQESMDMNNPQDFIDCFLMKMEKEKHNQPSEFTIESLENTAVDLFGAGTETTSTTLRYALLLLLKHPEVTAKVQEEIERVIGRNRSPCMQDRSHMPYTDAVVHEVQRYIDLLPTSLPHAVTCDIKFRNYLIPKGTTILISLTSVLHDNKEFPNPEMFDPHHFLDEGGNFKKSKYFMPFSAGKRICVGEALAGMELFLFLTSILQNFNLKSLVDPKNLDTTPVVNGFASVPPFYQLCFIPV
Text: (§2) Fig. S8. Preclinical data of PRG-A-04 a Plasma protein binding b CYP inhibition(direct) […]
(§3) d Mouse Brain Tissue penetration
(§4) For the convenience of calculation, […]

CYP2C19 = CYP2C19 (Homo sapiens, UniProt P33261)
Sequence of CYP2C19 (P33261 whole entry): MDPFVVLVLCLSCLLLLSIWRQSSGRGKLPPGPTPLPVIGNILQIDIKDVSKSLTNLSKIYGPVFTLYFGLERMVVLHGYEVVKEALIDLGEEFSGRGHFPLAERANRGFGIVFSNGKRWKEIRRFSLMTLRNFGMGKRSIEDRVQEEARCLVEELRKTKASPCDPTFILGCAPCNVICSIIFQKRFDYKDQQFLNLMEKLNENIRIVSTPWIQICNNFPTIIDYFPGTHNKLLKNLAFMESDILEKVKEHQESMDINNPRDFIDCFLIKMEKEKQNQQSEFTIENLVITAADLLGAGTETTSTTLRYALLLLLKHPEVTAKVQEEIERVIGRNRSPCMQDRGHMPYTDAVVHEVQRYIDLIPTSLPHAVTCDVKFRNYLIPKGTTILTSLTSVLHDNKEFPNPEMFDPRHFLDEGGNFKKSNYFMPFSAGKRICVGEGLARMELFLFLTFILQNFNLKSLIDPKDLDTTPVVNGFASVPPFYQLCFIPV
Text: as §2, §3, §4

plasma proteins = system: plasma proteins
Text: as §2, §3, §4

CYP 2B6 = CYP 2B6 (Homo sapiens, UniProt P20813)
Sequence of CYP 2B6 (P20813 whole entry): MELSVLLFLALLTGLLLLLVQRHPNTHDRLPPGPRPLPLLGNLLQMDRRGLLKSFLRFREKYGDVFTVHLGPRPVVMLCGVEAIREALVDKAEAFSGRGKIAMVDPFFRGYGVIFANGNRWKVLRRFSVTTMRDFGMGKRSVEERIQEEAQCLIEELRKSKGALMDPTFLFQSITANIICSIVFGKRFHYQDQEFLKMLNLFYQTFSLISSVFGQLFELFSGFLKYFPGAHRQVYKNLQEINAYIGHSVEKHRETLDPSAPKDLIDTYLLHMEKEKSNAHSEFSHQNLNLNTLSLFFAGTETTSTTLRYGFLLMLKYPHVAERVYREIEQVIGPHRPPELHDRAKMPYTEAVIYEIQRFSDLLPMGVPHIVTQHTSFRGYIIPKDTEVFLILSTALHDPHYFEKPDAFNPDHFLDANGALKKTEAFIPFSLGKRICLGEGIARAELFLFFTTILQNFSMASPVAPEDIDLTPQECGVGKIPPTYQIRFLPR
Text: as §2, §3, §4

CYP 2D6 = CYP 2D6 (Homo sapiens, UniProt P10635)
Sequence of CYP 2D6 (P10635 whole entry): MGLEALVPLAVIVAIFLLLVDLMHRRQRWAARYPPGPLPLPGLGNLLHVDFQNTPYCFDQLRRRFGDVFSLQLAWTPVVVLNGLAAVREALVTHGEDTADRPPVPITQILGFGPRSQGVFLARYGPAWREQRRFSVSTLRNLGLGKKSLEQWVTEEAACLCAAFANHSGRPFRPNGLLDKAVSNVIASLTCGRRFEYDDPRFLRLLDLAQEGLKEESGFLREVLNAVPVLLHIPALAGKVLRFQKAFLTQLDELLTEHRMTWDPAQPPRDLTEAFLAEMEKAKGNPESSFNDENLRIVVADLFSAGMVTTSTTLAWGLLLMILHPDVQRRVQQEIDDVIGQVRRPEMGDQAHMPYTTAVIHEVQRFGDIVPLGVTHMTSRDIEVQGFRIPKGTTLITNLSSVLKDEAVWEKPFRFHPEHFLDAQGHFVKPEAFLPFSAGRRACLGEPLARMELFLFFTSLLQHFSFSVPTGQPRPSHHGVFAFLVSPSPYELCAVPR
Text: as §2, §3, §4

CYP 2C8 = CYP 2C8 (Homo sapiens, UniProt P10632)
Sequence of CYP 2C8 (P10632 whole entry): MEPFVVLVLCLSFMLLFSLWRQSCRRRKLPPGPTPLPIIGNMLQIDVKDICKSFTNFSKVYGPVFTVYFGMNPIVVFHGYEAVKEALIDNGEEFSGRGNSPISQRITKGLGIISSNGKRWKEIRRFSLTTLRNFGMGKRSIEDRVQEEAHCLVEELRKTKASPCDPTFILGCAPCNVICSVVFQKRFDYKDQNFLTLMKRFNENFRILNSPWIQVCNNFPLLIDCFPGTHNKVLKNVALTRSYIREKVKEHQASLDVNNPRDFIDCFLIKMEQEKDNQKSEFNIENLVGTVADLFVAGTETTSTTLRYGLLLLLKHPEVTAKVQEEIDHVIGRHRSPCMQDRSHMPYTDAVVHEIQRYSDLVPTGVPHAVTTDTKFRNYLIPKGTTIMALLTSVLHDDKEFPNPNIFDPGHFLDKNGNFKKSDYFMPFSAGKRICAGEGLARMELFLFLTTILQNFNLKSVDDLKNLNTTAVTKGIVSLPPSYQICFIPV
Text: as §2, §3, §4

Plasma stability = format: in vitro ADME; settings: SD rat plasma, after 120 min of incubation
[2] = Pharmacokinetics in mice (compound screening, IV/PO); format: in vivo, mouse; settings: mouse (compound screening), PO3, 20 mg/kg
Method: Fig. S1. Optimized inhibitor reduces SOD1 aggregation. a, Mutant SOD1s induced WT-SOD1 aggregation. Testing the selected chemicals to check the inhibitory effect on SOD1 aggregation .HEK293 cells were transfected with MT-SOD1 vectors (A4V, G 93 A) and treated with selected chemicals (5 mM). After incubation, transfected cells were harvested with TNNI buffer and fixed with 0.04% glutaraldehyde (Glu) for 30min. Samples were separated using SDS-PAGE. b-c, PRG-A-04 inhibited SOD1 inclusions in SK-N-SH cells. (b) Cells expressing MT-SOD1 vectors were treated with PRG-A-04 ([…]) for 24 hr. After incubation, cells were fixed with 4 % PFA and observed under the fluorescence microscope. (c) Cells with SOD1 inclusions (white arrows; strong intensity of SOD1) were counted by photomicrographs and the percentages were shown with standard deviation (SD). For cell counting, ten fluorescence images were randomly selected. Counting of cells were performed by three independent observers, who were blinded to transfection or chemical treatment group; two-tailed Student’s t-test. NS; Not significant, ****P < 0.001, d, PRG-A- […]
degradationin blood as well as gastro-intestinal tract.IV; intravenous injected group, PO; Per Os administrated group e, […]
show cytotoxicity. To know the toxic effect of PRG-A-04 , human normal fibroblast (f) and neuron cells (g) were incubated with PRG -A-04 for 48 hr dose dependently and measured the viability through MTT assay .“Con” means Dimethyl sulfoxide (DMSO) -treated control . The data are normalized to DMSO-treated cells. n=3 independent experiments; two-tailed Student’s t-test.NS; Not significant, *P < 0.05, **P < 0.01, ***P < 0.005.

[3] = mouse, in vivo, po, 20 mg/kg
Text: as §1, §2, §3, §4

MT-SOD1 = test: SOD1 oligomerization assay in cells transfected with MT-SOD1 (glutaraldehyde fixation, SDS-PAGE); format: cell-based
Method: For SDS-PAGE, proteins were extracted from cells with the RIPA buffer (50 mmol/L Tris–Cl, pH 7.5, 150 mmol/L NaCl, 1% NP-40, 0.1% SDS and […]). To detect the oligomer status, the cells were harvested with the TNNI buffer (50 mmol/L Tris–Cl, pH 7.5, 150 mmol/L NaCl, 0.3% NP-40, 100 mmol/L iodoacetamide, protease inhibitor cocktails) and reacted with 0.04% glutaraldehyde (Glu) for 30 min, and then SDS-PAGE was performed using the pan-SOD1 antibody. Samples were separated via SDS-PAGE and transferred to PVDF membrane. Blotted membranes were blocked by 3% skim milk containing TBST buffer for 1 h and incubated with specific antibodies. The following primary antibodies were used: pan-SOD1 (GTX100554) from Genetex (Irvine, CA); misfolded SOD1-specific antibody (B8H10) from MediMabs (Montreal, Canada); Actin (sc-1616), GST (sc-138), and GFP (Green fluorescent protein; sc-8036) antibodies from Santa Cruz Biotechnology (Santa Cruz, CA); TDP-43 antibody (10782–2-AP) from Proteintech (Rosemont, IL); anti-FLAG (Sigma; F3165) from Sigma-Aldrich (St. Louis, MO). HRP-conjugated goat anti-mouse, goat anti-rabbit and mouse anti-goat antibodies (Pierce, Thermo Fisher Scientific, Inc., Rockford, IL) were used as secondary antibodies. The blots were detected using an ECL assay (Advansta) and images were acquired using the […] ImageQuant 800 (Cytiva) system and an X-Ray film detector. […]

In the case of `COc1cc(C=CCOC2Cc3cc4ccc(=O)oc4cc3OC2(C)C)ccc1[N+](=O)[O-]` (stereo not shown) [PRG-A-04], the “Mean Pe” value [1] is reported as 0.418 ×10⁻⁶ cm/s, the “reduction of motility (rotarod latency) at 18 weeks” value (SOD1^G93A−Tg mice) is reported as 50% and the IC50 (CYP 2C9) is reported as over 10 µM. The IC50 (CYP2C19) was 4.75 µM, the “% Bound” value (plasma proteins; Dog plasma, concentration 0.2 uM) was over 99.93% and the “% Bound” value (plasma proteins; Dog plasma, concentration 2 uM) was 99.95%. The “% Bound” value (plasma proteins; Dog plasma, concentration 10 uM) was 99.92%, the “% Bound” value (plasma proteins; Human plasma, concentration 0.2 uM) was over 99.92% and the “% Bound” value (plasma proteins; Human plasma, concentration 2 uM) was 99.97%. The “% Bound” value (plasma proteins; Human plasma, concentration 10 uM) was 99.97%, the “% Bound” value (plasma proteins; Monkey plasma, concentration 0.2 uM) was over 99.94% and the “% Bound” value (plasma proteins; Monkey plasma, concentration 2 uM) was 99.93%. The “% Bound” value (plasma proteins; Monkey plasma, concentration 10 uM) was 99.89%, the “% Bound” value (plasma proteins; Mouse plasma, concentration 0.2 uM) was 99.91% and the “% Bound” value (plasma proteins; Mouse plasma, concentration 2 uM) was 99.92%. For the same compound, the “% Bound” value (plasma proteins; Mouse plasma, concentration 10 uM) was 99.87%, the “% Bound” value (plasma proteins; Rat plasma, concentration 0.2 uM) was 99.9% and the “% Bound” value (plasma proteins; Rat plasma, concentration 2 uM) was 99.91%. For the same compound, the “% Bound” value (plasma proteins; Rat plasma, concentration 10 uM) was 99.86%, the IC50 (CYP 2B6) was over 10 µM and the IC50 (CYP 2D6) was over 10 µM. For the same compound, the IC50 (CYP 2C8) was over 10 µM, the “stability in plasma” value (Plasma stability) was “stable” and the bioavailability [2] was 63.78%. The “Brain/Plasma Ratio, M01+3n” value ([3]; 0.5 h) was 2.18, the “Brain/Plasma Ratio, M02+3n” value ([3]; 0.5 h) was 1.54 and the “Brain/Plasma Ratio, M03+3n” value ([3]; 0.5 h) was 1.90. For the same compound, the “Brain/Plasma Ratio, Mean” value ([3]; 0.5 h) was 1.87, the “Brain/Plasma Ratio, M01+3n” value ([3]; 1 h) was 2.29 and the “Brain/Plasma Ratio, M02+3n” value ([3]; 1 h) was 2.02. The “Brain/Plasma Ratio, M03+3n” value ([3]; 1 h) was 2.02, the “Brain/Plasma Ratio, M01+3n” value ([3]; 12 h) was 1.92 and the “Brain/Plasma Ratio, M02+3n” value ([3]; 12 h) was 1.87. The “Brain/Plasma Ratio, M03+3n” value ([3]; 12 h) was 1.71, the “Brain/Plasma Ratio, Mean” value ([3]; 12 h) was 1.84 and the “effect on SOD1 dimer formation” value (MT-SOD1; cells transfected with MT-SOD1) was “did not affect dimer formation”. The “effect on MT-SOD1 aggregation / oligomerization” value (MT-SOD1; cells transfected with MT-SOD1 vectors) was “suppressed the MT-SOD1 aggregation; also recorded: blocked aggregation of various SOD1 mutants; also recorded: suppressed SOD1 oligomerization by MT-SOD1 in a dose-dependent manner”.

Source: PMC12067741, “Inhibition of SOD1 trimerization is a novel drug target for ALS disease” (Translational Neurodegeneration, 2025)
